US20250101023A1, “HETEROARYL DERIVATIVE AND USES THEREOF” (IUCF-HYU (INDUSTRY-UNIVERSITY COOPERATION FOUNDATION …, priority 2022, published 2025)

Legend:
IRS1 and WNT1 = experiment: Western blot, CDK12 downstream gene expression; assay type: cell-based; details: SK-Br3 and HCC1954 cell lines, 40 and 200 nM, 24 hours
FGFR2 = FGFR2 (Homo sapiens (Human), UniProt P21802); experiment: Kinome-wide profiling; assay type: biochemical; details: read-out: % Residual Activity (mean)
PKN3/PRK3 = PKN3/PRK3 (Homo sapiens (Human), UniProt Q6P5Z2); experiment: Kinome-wide profiling; assay type: biochemical; details: read-out: % Residual Activity (mean)
CDK2/CYCLIN E = CDK2/CYCLIN E (Homo sapiens (Human), UniProt P24941); experiment: Kinome-wide profiling; assay type: biochemical; details: read-out: % Residual Activity (mean)
BRSK2 = BRSK2 (Homo sapiens (Human), UniProt Q8IWQ3); experiment: Kinome-wide profiling; assay type: biochemical; details: read-out: % Residual Activity (mean)
TAK1 = TAK1 (Homo sapiens (Human), UniProt O43318); experiment: Kinome-wide profiling; assay type: biochemical; details: read-out: % Residual Activity (mean)
NEK6 = NEK6 (Homo sapiens (Human), UniProt Q9HC98); experiment: Kinome-wide profiling; assay type: biochemical; details: read-out: % Residual Activity (mean)
PIM2 = PIM2 (Homo sapiens (Human), UniProt Q9P1W9); experiment: Kinome-wide profiling; assay type: biochemical; details: read-out: % Residual Activity (mean)
IKKb/IKBKB = IKKb/IKBKB (Homo sapiens (Human), UniProt O14920); experiment: Kinome-wide profiling; assay type: biochemical; details: read-out: % Residual Activity (mean)
SRMS = SRMS (Homo sapiens (Human), UniProt Q9H3Y6); experiment: Kinome-wide profiling; assay type: biochemical; details: read-out: % Residual Activity (mean)
DDR1 = DDR1 (Homo sapiens (Human), UniProt Q08345); experiment: Kinome-wide profiling; assay type: biochemical; details: read-out: % Residual Activity (mean)
DDR1, sequence (Q08345 19-913): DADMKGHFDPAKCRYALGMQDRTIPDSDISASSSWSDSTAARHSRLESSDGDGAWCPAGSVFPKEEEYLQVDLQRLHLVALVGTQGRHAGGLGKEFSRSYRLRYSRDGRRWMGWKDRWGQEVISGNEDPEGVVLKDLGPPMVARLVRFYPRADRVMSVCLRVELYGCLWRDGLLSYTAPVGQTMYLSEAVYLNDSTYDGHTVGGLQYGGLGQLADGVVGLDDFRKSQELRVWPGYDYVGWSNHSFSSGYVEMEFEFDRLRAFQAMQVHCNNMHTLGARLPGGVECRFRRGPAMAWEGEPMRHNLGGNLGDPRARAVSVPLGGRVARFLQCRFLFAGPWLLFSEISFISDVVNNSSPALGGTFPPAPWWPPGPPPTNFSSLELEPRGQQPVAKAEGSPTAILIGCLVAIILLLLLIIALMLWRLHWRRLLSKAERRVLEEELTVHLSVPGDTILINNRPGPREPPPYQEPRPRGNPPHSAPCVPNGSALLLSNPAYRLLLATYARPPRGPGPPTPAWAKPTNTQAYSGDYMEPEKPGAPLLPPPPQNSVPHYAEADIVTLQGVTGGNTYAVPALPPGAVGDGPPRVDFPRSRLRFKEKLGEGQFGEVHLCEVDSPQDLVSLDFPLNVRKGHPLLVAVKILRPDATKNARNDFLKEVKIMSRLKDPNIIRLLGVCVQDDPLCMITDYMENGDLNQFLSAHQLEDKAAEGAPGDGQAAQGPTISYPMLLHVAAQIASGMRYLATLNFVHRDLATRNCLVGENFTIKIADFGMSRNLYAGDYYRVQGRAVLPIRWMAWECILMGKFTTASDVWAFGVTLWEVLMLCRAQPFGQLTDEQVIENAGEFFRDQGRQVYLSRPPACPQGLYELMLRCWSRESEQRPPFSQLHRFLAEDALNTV

BRK = BRK (Homo sapiens (Human), UniProt Q13882); experiment: Kinome-wide profiling; assay type: biochemical; details: read-out: % Residual Activity (mean)
BRK, sequence (Q13882 whole entry): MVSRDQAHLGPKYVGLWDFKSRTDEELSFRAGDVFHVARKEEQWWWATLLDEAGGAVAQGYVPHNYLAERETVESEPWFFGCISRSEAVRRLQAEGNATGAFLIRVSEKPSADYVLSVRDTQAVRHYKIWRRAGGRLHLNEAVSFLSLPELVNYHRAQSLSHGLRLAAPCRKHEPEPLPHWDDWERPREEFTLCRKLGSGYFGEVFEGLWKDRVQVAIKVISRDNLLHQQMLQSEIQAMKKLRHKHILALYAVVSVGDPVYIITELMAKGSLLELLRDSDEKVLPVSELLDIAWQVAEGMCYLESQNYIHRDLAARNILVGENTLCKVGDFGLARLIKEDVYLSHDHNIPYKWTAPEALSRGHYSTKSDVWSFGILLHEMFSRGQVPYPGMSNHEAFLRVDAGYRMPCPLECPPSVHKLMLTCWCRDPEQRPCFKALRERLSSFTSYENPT

PKCmu/PRKD1 = PKCmu/PRKD1 (Homo sapiens (Human), UniProt Q15139); experiment: Kinome-wide profiling; assay type: biochemical; details: read-out: % Residual Activity (mean)
P38a/MAPK14 = P38a/MAPK14 (Homo sapiens (Human), UniProt Q16539); experiment: Kinome-wide profiling; assay type: biochemical; details: read-out: % Residual Activity (mean)
SRPK1 = SRPK1 (Homo sapiens (Human), UniProt Q96SB4); experiment: Kinome-wide profiling; assay type: biochemical; details: read-out: % Residual Activity (mean)
SRPK1, sequence (Q96SB4 whole entry): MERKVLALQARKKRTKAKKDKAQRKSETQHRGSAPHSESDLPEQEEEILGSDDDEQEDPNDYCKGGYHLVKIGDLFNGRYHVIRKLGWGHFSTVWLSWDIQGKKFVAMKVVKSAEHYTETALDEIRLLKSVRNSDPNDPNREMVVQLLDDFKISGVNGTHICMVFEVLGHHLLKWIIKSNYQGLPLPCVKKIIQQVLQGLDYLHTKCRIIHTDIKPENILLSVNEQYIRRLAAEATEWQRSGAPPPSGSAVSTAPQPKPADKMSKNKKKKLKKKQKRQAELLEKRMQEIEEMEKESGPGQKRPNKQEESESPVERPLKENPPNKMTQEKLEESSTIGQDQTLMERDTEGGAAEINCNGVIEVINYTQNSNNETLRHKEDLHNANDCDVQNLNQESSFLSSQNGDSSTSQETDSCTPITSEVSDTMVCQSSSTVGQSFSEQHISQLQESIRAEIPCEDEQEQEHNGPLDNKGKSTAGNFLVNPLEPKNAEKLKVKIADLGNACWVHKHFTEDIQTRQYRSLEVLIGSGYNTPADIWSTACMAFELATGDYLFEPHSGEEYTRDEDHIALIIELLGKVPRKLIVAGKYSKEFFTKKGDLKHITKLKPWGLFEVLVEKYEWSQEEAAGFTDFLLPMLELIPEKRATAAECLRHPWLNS

STK38/NDR1 = STK38/NDR1 (Homo sapiens (Human), UniProt Q15208); experiment: Kinome-wide profiling; assay type: biochemical; details: read-out: % Residual Activity (mean)
NEK1 = NEK1 (Homo sapiens (Human), UniProt Q96PY6); experiment: Kinome-wide profiling; assay type: biochemical; details: read-out: % Residual Activity (mean)
NEK11 = NEK11 (Homo sapiens (Human), UniProt Q8NG66); experiment: Kinome-wide profiling; assay type: biochemical; details: read-out: % Residual Activity (mean)
NEK11, sequence (Q8NG66 whole entry): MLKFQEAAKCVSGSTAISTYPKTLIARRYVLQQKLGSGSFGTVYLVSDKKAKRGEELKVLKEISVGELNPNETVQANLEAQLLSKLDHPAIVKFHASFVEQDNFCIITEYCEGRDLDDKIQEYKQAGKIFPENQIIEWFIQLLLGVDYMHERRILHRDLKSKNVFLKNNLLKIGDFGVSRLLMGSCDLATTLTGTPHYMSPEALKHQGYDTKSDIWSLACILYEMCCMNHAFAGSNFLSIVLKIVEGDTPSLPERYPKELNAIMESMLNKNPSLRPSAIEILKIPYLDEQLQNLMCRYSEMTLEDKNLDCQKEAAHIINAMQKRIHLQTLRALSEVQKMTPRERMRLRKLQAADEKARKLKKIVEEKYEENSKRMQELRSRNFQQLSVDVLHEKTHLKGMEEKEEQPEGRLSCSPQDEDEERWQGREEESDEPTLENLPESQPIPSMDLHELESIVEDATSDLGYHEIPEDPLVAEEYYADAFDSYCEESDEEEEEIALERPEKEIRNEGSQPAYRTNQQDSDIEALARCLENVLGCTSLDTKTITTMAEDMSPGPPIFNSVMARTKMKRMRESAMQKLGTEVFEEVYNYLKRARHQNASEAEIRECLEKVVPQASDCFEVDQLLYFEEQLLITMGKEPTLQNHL

CDK9/cyclin T1 = CDK9/cyclin T1 (Homo sapiens (Human), UniProt P50750); experiment: Kinome-wide profiling; assay type: biochemical; details: read-out: % Residual Activity (mean)
MKK7 = MKK7 (Homo sapiens (Human), UniProt O14733); experiment: Kinome-wide profiling; assay type: biochemical; details: read-out: % Residual Activity (mean)
MKK7, sequence (O14733 whole entry): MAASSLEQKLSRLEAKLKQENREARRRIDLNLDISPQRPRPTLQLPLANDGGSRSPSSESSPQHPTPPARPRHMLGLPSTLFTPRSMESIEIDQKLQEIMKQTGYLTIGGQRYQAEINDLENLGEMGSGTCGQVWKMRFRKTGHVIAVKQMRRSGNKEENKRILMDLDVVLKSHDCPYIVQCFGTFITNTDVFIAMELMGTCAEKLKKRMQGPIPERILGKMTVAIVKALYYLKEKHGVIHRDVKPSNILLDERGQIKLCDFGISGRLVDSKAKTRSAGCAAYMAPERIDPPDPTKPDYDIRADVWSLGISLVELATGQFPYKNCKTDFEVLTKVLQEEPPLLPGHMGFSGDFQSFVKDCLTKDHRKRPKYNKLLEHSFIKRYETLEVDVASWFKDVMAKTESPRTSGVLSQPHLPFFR

KDR/VEGFR2 = KDR/VEGFR2 (Homo sapiens (Human), UniProt P35968); experiment: Kinome-wide profiling; assay type: biochemical; details: read-out: % Residual Activity (mean)
MST3/STK24 = MST3/STK24 (Homo sapiens (Human), UniProt Q9Y6E0); experiment: Kinome-wide profiling; assay type: biochemical; details: read-out: % Residual Activity (mean)
TYK2 = TYK2 (Homo sapiens (Human), UniProt P29597); experiment: Kinome-wide profiling; assay type: biochemical; details: read-out: % Residual Activity (mean)
FGFR3 = FGFR3 (Homo sapiens (Human), UniProt P22607); experiment: Kinome-wide profiling; assay type: biochemical; details: read-out: % Residual Activity (mean)
PAK1 = PAK1 (Homo sapiens (Human), UniProt Q13153); experiment: Kinome-wide profiling; assay type: biochemical; details: read-out: % Residual Activity (mean)
PKCd = PKCd (Homo sapiens (Human), UniProt Q05655); experiment: Kinome-wide profiling; assay type: biochemical; details: read-out: % Residual Activity (mean)
PHKg1 = PHKg1 (Homo sapiens (Human), UniProt Q16816); experiment: Kinome-wide profiling; assay type: biochemical; details: read-out: % Residual Activity (mean)
HPK1/MAP4K1 = HPK1/MAP4K1 (Homo sapiens (Human), UniProt Q92918); experiment: Kinome-wide profiling; assay type: biochemical; details: read-out: % Residual Activity (mean)
STK21/CIT = STK21/CIT (Homo sapiens (Human), UniProt O14578); experiment: Kinome-wide profiling; assay type: biochemical; details: read-out: % Residual Activity (mean)
CLK1 = CLK1 (Homo sapiens (Human), UniProt P49759); experiment: Kinome-wide profiling; assay type: biochemical; details: read-out: % Residual Activity (mean)
CLK1, sequence (P49759 whole entry): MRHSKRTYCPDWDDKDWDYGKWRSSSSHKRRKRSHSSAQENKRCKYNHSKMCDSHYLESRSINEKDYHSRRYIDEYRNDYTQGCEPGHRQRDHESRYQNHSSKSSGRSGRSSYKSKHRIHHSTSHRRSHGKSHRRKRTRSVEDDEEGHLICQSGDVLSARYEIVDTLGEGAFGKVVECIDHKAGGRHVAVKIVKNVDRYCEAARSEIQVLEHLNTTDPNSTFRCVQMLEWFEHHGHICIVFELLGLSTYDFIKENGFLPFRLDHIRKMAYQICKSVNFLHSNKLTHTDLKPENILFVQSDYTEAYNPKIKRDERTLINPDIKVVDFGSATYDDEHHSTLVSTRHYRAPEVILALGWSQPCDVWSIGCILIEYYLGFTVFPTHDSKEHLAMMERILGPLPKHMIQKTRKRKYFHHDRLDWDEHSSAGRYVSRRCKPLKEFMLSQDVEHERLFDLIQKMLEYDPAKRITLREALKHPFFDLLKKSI

STK39/STLK3 = STK39/STLK3 (Homo sapiens (Human), UniProt Q9UEW8); experiment: Kinome-wide profiling; assay type: biochemical; details: read-out: % Residual Activity (mean)
GRK4 = GRK4 (Homo sapiens (Human), UniProt P32298); experiment: Kinome-wide profiling; assay type: biochemical; details: read-out: % Residual Activity (mean)
GRK4, sequence (P32298 whole entry): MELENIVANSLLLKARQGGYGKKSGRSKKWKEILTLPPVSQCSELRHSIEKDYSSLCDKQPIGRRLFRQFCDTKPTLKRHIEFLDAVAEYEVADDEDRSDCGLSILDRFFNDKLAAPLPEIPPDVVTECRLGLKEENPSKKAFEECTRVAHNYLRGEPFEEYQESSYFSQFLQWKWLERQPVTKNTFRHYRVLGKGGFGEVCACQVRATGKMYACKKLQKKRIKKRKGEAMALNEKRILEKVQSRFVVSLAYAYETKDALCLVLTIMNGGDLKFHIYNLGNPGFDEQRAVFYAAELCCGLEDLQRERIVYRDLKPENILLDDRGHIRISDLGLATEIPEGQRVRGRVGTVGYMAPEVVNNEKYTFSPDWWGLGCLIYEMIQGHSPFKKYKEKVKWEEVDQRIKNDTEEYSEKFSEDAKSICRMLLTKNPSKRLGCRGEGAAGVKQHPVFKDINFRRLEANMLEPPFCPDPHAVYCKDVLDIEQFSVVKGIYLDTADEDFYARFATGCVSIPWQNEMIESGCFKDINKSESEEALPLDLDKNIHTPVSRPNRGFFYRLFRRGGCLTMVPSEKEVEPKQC

TRKA = TRKA (Homo sapiens (Human), UniProt P04629); experiment: Kinome-wide profiling; assay type: biochemical; details: read-out: % Residual Activity (mean)
TRKA, sequence (P04629 33-796): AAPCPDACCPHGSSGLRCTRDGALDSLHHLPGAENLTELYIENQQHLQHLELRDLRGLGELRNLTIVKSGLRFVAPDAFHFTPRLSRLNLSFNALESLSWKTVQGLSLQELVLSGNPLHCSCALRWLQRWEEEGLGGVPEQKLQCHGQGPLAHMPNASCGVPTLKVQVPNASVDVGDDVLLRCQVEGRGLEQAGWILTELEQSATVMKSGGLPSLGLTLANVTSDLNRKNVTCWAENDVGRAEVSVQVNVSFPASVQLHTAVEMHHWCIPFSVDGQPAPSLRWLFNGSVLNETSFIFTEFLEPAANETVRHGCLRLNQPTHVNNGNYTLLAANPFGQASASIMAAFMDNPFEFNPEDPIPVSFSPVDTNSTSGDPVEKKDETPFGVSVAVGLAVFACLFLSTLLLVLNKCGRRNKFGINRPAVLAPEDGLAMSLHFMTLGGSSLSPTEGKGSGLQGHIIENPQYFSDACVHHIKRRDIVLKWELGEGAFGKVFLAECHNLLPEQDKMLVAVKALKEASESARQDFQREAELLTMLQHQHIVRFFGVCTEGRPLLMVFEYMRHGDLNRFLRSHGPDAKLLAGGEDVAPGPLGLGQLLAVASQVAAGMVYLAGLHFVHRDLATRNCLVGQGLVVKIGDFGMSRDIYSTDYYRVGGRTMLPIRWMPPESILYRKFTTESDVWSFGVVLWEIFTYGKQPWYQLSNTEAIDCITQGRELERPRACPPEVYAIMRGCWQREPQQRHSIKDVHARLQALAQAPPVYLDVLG

CDK16/cyclin Y (PCTAIRE) = CDK16/cyclin Y (PCTAIRE) (Homo sapiens (Human), UniProt Q00536); experiment: Kinome-wide profiling; assay type: biochemical; details: read-out: % Residual Activity (mean)
TESK1 = TESK1 (Homo sapiens (Human), UniProt Q15569); experiment: Kinome-wide profiling; assay type: biochemical; details: read-out: % Residual Activity (mean)
TBK1 = TBK1 (Homo sapiens (Human), UniProt Q9UHD2); experiment: Kinome-wide profiling; assay type: biochemical; details: read-out: % Residual Activity (mean)
MEK5 = MEK5 (Homo sapiens (Human), UniProt Q13163); experiment: Kinome-wide profiling; assay type: biochemical; details: read-out: % Residual Activity (mean)
TSSK3/STK22C = TSSK3/STK22C (Homo sapiens (Human), UniProt Q96PN8); experiment: Kinome-wide profiling; assay type: biochemical; details: read-out: % Residual Activity (mean)

SMILES: CCn1cnc2c(NCc3ccc(-c4ccccn4)nc3)nc(-c3ccc(N)nc3)nc21 [Example 53, N-([2,2′-bipyridin]-5-ylmethyl)-2-(6-aminopyridin-3-yl)-9-ethyl-9H-purin-6-amine]
- expression of IRS1 and WNT1 (IRS1 and WNT1): inhibited the expression of IRS1 and WNT1
- expression of IRS1 and WNT1 (IRS1 and WNT1; listed as Compound 53): strongly suppressed
- remaining activity at 10 µM (FGFR2): 33.7%
- remaining activity at 10 µM (PKN3/PRK3): 81.5%
- remaining activity at 10 µM (CDK2/CYCLIN E): 4.01%
- remaining activity at 10 µM (BRSK2): 97.5%
- remaining activity at 10 µM (TAK1): 98.2%
- remaining activity at 10 µM (NEK6): 92.1%
- remaining activity at 10 µM (PIM2): 93.8%
- remaining activity at 10 µM (IKKb/IKBKB): 83.7%
- remaining activity at 10 µM (SRMS): 96.8%
- remaining activity at 10 µM (DDR1): 50.2%
- remaining activity at 10 µM (BRK): 46.6%
- remaining activity at 10 µM (PKCmu/PRKD1): 70.3%
- remaining activity at 10 µM (P38a/MAPK14): 84.2%
- remaining activity at 10 µM (SRPK1): 54.3%
- remaining activity at 10 µM (STK38/NDR1): 28.3%
- remaining activity at 10 µM (NEK1): 92.3%
- remaining activity at 10 µM (NEK11): 94.2%
- remaining activity at 10 µM (CDK9/cyclin T1): 0.78%
- remaining activity at 10 µM (MKK7): 96.3%
- remaining activity at 10 µM (KDR/VEGFR2): 88.6%
- remaining activity at 10 µM (MST3/STK24): 47%
- remaining activity at 10 µM (TYK2): 90.7%
- remaining activity at 10 µM (FGFR3): 30.6%
- remaining activity at 10 µM (PAK1): 24.5%
- remaining activity at 10 µM (PKCd): 95.2%
- remaining activity at 10 µM (PHKg1): 16.5%
- remaining activity at 10 µM (HPK1/MAP4K1): 30.2%
- remaining activity at 10 µM (STK21/CIT): 97.9%
- remaining activity at 10 µM (CLK1): 13.7%
- remaining activity at 10 µM (STK39/STLK3): 29.6%
- remaining activity at 10 µM (GRK4): 88.3%
- remaining activity at 10 µM (TRKA): 28.7%
- remaining activity at 10 µM (CDK16/cyclin Y (PCTAIRE)): 17.5%
- remaining activity at 10 µM (TESK1): 93.1%
- remaining activity at 10 µM (TBK1): 55%
- remaining activity at 10 µM (MEK5): 84.1%
- remaining activity at 10 µM (TSSK3/STK22C): 91.5%
